The values below come from ChEMBL document CHEMBL1201862, “PubChem BioAssay data set” (2004).

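Values below derive from 48-hour exposures of cells grown in 96-well plates, with endpoints linearly interpolated between the two concentrations bracketing the appropriate inhibition level. The concentration for 50% growth inhibition is given as GI50.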 The source made the active and inactive calls. Cut-off read from the data, not from the text of the source: active = GI50 up to about 1.1 µM and inactive = higher. A value given as a limit tells only on which side of the number the result lay.

Test systems include KM12; NCI-H522; HOP-62; MCF7; OVCAR-8; K562; SF-295; A549; SF-268; DU-145; UO-31; HL-60; NCI/ADR-RES; T47D; Malme-3M; EKVX; SNB-19; HCT-15; SK-MEL-5; HT-29.
Common to all, as to experiment: NCI anticancer screen, dose series, 48 h

On to `CCN(CC)CCCC(C)Nc1ccnc2cc3ccccc3cc12` (stereo not given), for which the GI50 was 4.95 µM (inactive) in the test with KM12; 10.4 µM (inactive) in the test on NCI-H522; 12.4 µM (inactive) with HOP-62; 5.35 µM (inactive) in the test on MCF7; 7.23 µM (inactive) in the test on OVCAR-8; 7 µM (inactive) with K562. Also, the GI50 is 5.82 µM (inactive) in the test with SF-295; 7.03 µM (inactive) in the test on A549; 4.86 µM (inactive) in the test with SF-268; > 100 µM (inactive) in the test with DU-145; 6.32 µM (inactive) in the test with UO-31; 10.7 µM (inactive) in the test on HL-60. Moreover, the GI50 with NCI/ADR-RES was 10.1 µM (inactive); in the test on T47D, 12.8 µM (inactive); in the test on Malme-3M, 19.7 µM (inactive); with EKVX, 32.2 µM (inactive); with SNB-19 it was 7.53 µM (inactive); in the test on HCT-15, 3.23 µM. Besides, the GI50 with SK-MEL-5 was 19.8 µM (inactive).

For the compound `CC(C)(C)c1cc(C2NC(=O)NC2=O)cc(C(C)(C)C)c1O` (stereo not given), the GI50 in the test with KM12 is 18.8 µM (inactive); in the test on NCI-H522, 32.8 µM (inactive); with HOP-62, > 100 µM (inactive); in the test on MCF7, 24.7 µM (inactive); in the test with OVCAR-8, 85.7 µM (inactive); in the test on K562, 33.9 µM (inactive). Also, the GI50 with SF-295 was 64.4 µM (inactive); in the test on A549, 96.8 µM (inactive); with SF-268, 64.6 µM (inactive); in the test with DU-145, > 100 µM (inactive); in the test on UO-31, > 100 µM (inactive); with NCI/ADR-RES, > 100 µM (inactive). In addition, the GI50 in the test with HT-29 was 46.5 µM (inactive); in the test with T47D, 46 µM (inactive); in the test with Malme-3M, 80 µM (inactive); in the test with EKVX, > 100 µM (inactive); in the test on SNB-19 it was > 100 µM (inactive); in the test with HCT-15 it was 93.3 µM. Moreover, the GI50 in the test on SK-MEL-5 is > 10 µM (inactive).

`N#CC(NCCc1ccccc1)c1ccc(C(C#N)NCCc2ccccc2)cc1` (stereo not given): the GI50 in the test with KM12 was > 100 µM (inactive); in the test with NCI-H522 it was > 100 µM (inactive); in the test with MCF7, 55.5 µM (inactive); in the test on OVCAR-8, 73.6 µM (inactive); in the test with K562 it was 24.2 µM (inactive); with SF-295, > 100 µM (inactive). Moreover, the GI50 in the test with A549 is > 100 µM (inactive); with SF-268, 69.3 µM (inactive); in the test with DU-145, > 100 µM (inactive); with UO-31, 93.1 µM (inactive); in the test on HL-60 it was 14.6 µM (inactive); in the test with NCI/ADR-RES it was 24.3 µM (inactive). The GI50 in the test on HT-29 is 49.2 µM (inactive); in the test on T47D, > 100 µM (inactive); in the test with Malme-3M it was > 100 µM (inactive); with EKVX it was > 100 µM (inactive); in the test on SNB-19, 61.2 µM (inactive); with HCT-15, above 100 µM. The GI50 in the test with SK-MEL-5 was 32.1 µM (inactive).

For `CSC1=C(C(=O)Nc2ccccc2)C(N)=NC1=O`, the GI50 in the test with KM12 was > 100 µM (inactive); in the test with NCI-H522, 11.3 µM (inactive); in the test on MCF7, 89.7 µM (inactive); with OVCAR-8, > 100 µM (inactive); with K562, > 100 µM (inactive); with A549 it was > 100 µM (inactive). Moreover, the GI50 is > 100 µM (inactive) in the test on SF-268; > 100 µM (inactive) in the test with DU-145; 17.1 µM (inactive) with UO-31; > 100 µM (inactive) with HL-60; > 100 µM (inactive) in the test on NCI/ADR-RES; > 100 µM (inactive) in the test with HT-29. Also, the GI50 in the test with T47D is 92.7 µM (inactive); in the test with Malme-3M it was > 100 µM (inactive); in the test on EKVX it was 77.1 µM (inactive); in the test with SNB-19, > 100 µM (inactive); in the test with HCT-15, above 100 µM; in the test on SK-MEL-5, > 100 µM (inactive).

As to `O=C(/C=C/c1ccc(O)c(O)c1)NC(CO)C(=O)O` (stereo not given), the GI50 in the test on KM12, in the test on NCI-H522, with HOP-62, in the test with MCF7, with OVCAR-8 and in the test with K562 was > 100 µM (inactive) in each case. Also, the GI50 in the test on SF-295 was > 100 µM (inactive); in the test with A549 it was > 100 µM (inactive); in the test with SF-268 it was > 100 µM (inactive); in the test with DU-145, > 100 µM (inactive); with UO-31, > 100 µM (inactive); with NCI/ADR-RES, 2.59 µM (inactive). The GI50 in the test on HT-29 is > 100 µM (inactive); in the test on T47D, > 100 µM (inactive); in the test on Malme-3M it was > 100 µM (inactive); in the test on EKVX, > 100 µM (inactive); in the test with SNB-19, > 100 µM (inactive); with HCT-15, 1.08 µM. In addition, in the test with SK-MEL-5, the GI50 is > 100 µM (inactive).

As to `CNc1cccc2c1C(C)C[C@]1(C)C(=O)Nc3ccccc3[C@H]21` (stereo not given in full), the GI50 in the test on KM12 was 26.1 µM (inactive); in the test with NCI-H522 it was 20.5 µM (inactive); with HOP-62 it was 19.8 µM (inactive); in the test on MCF7, 22.3 µM (inactive); with OVCAR-8 it was 19.1 µM (inactive); in the test with K562, > 100 µM (inactive). For the same compound, the GI50 with SF-295 was 17.7 µM (inactive); with A549, 20 µM (inactive); in the test with SF-268 it was 34 µM (inactive); with DU-145 it was 39.1 µM (inactive); with UO-31, 23.1 µM (inactive); with HL-60 it was > 100 µM (inactive). Moreover, the GI50 is 23.1 µM (inactive) with NCI/ADR-RES; 28 µM (inactive) in the test on HT-29; 41.1 µM (inactive) in the test with T47D; 19.5 µM (inactive) with Malme-3M; 41.7 µM (inactive) in the test on EKVX; 23 µM (inactive) with SNB-19. Besides, the GI50 with HCT-15 was 39.4 µM; in the test with SK-MEL-5, 43.8 µM (inactive).

As to `O=C1C=C(NCCOCCO)C(=O)c2c(O)ccc(O)c21`, the GI50 was 30.1 µM (inactive) in the test with KM12; 24 µM (inactive) in the test with NCI-H522; 58.6 µM (inactive) in the test on HOP-62; 16 µM (inactive) in the test with MCF7; 28.2 µM (inactive) in the test with OVCAR-8; 27.9 µM (inactive) with K562. For the same compound, the GI50 with SF-295 was 47.4 µM (inactive); in the test on A549 it was 28.1 µM (inactive); in the test with SF-268, 31.8 µM (inactive); with DU-145, 99.3 µM (inactive); in the test on UO-31, 59.8 µM (inactive); in the test with HL-60 it was 15.3 µM (inactive). The GI50 is 23.1 µM (inactive) with NCI/ADR-RES; 20.4 µM (inactive) with HT-29; 23.8 µM (inactive) with T47D; 11.9 µM (inactive) with Malme-3M; 32.4 µM (inactive) with SNB-19; 22.9 µM with HCT-15. In addition, in the test with SK-MEL-5, the GI50 was 13.2 µM (inactive).

Turning to `N#Cc1ccc(OCc2ccc3nc(-c4ccccc4)c(Cl)nc3c2)cc1`, the GI50 with KM12 was > 100 µM (inactive); in the test with NCI-H522, > 100 µM (inactive); in the test with HOP-62 it was 42.7 µM (inactive); in the test on MCF7, > 100 µM (inactive); in the test with OVCAR-8, > 100 µM (inactive); with SF-295 it was > 100 µM (inactive). For the same compound, the GI50 in the test on A549, in the test on SF-268, with DU-145, in the test with UO-31, with HL-60 and in the test on NCI/ADR-RES was > 100 µM (inactive) throughout. For the same compound, the GI50 in the test with HT-29 is > 100 µM (inactive); in the test with T47D it was > 100 µM (inactive); in the test with Malme-3M it was > 100 µM (inactive); in the test with EKVX it was > 100 µM (inactive); with SNB-19, > 100 µM (inactive); in the test on HCT-15 it was above 100 µM. For the same compound, in the test on SK-MEL-5, the GI50 is > 100 µM (inactive).

Consider `CC[C@@]1(O)C(=O)OCc2c1cc1n(c2=O)Cc2c-1nc1ccccc1c2/C=N\NC(=O)C(N)Cc1c[nH]cn1` (stereo not given in full), for which the GI50 in the test with KM12 was 2.38 µM (inactive); in the test with NCI-H522, 0.372 µM (active); with HOP-62, 0.0524 µM (active); in the test on MCF7, 0.0885 µM (active); with OVCAR-8, 0.184 µM (active); in the test on K562, 0.468 µM (active). Further, the GI50 in the test on SF-295 was 0.132 µM (active); in the test on A549, 0.452 µM (active); in the test with SF-268, 0.0545 µM (active); in the test with DU-145 it was 0.181 µM (active); with UO-31, 0.348 µM (active); in the test on HL-60, 0.164 µM (active). In addition, the GI50 was 0.41 µM (active) in the test with NCI/ADR-RES; 2.1 µM (inactive) with HT-29; 0.158 µM (active) in the test with T47D; 2.53 µM (inactive) in the test on Malme-3M; 7.45 µM (inactive) in the test with EKVX; 0.0908 µM (active) with SNB-19. The results for the GI50 in the test with HCT-15 and in the test with SK-MEL-5 were 1.34 µM and 0.222 µM (active), respectively.

Consider `O=C(Nc1nnc(-c2ccccc2)o1)C(SC(=S)N1CCCCC1)c1ccccc1` (stereo not given), for which the GI50 in the test on KM12 is 22.9 µM (inactive); in the test on NCI-H522, 23.5 µM (inactive); with HOP-62, 18.3 µM (inactive); in the test with MCF7 it was 23.4 µM (inactive); in the test with OVCAR-8, 26.5 µM (inactive); with K562, 9.55 µM (inactive). Also, the GI50 in the test on SF-295 is 14.1 µM (inactive); in the test with A549, 17.1 µM (inactive); in the test with DU-145 it was 17.2 µM (inactive); in the test with UO-31, 8.79 µM (inactive); with HL-60, 3.11 µM (inactive); in the test with NCI/ADR-RES it was 3.93 µM (inactive). Further, the GI50 in the test with HT-29 is 20.6 µM (inactive); in the test on T47D it was 31.2 µM (inactive); with Malme-3M, 26.2 µM (inactive); in the test with EKVX, 20.9 µM (inactive); in the test with SNB-19 it was 32.1 µM (inactive); in the test with HCT-15, 5.02 µM. For the same compound, the GI50 in the test with SK-MEL-5 was 13.6 µM (inactive).

Regarding `Fc1ccc(-c2sc(-c3cccs3)cc2Cc2cccs2)cc1`, the GI50 with KM12, with NCI-H522, with MCF7, in the test on OVCAR-8, in the test with K562 and in the test on SF-295 was > 100 µM (inactive) throughout. Besides, the GI50 in the test with A549, in the test on SF-268, in the test with DU-145, in the test on UO-31, with HL-60 and in the test on NCI/ADR-RES was > 100 µM (inactive) throughout. For the same compound, the GI50 in the test with HT-29 is 80.2 µM (inactive); in the test with T47D, > 100 µM (inactive); with Malme-3M, > 100 µM (inactive); in the test with EKVX, > 100 µM (inactive); in the test on SNB-19 it was > 100 µM (inactive); in the test with HCT-15 it was above 100 µM. Moreover, the GI50 in the test on SK-MEL-5 was > 100 µM (inactive).
